Test results: BindingDB's records for doi:10.1158/2159-8290.CD-13-1010 (Fred Hutchinson Cancer Research Center, 2014)

Target: Transmembrane protease serine 2 (Homo sapiens, UniProt O15393)
Test: titration assay
Text: To identify inhibitors of TMPRSS2 that may be used directly in clinical studies or as lead compounds to develop targeted drugs, we screened several chemical libraries with active TMPRSS2 protease, the […] TMPRSS2 peptide substrate Boc-Gln-Ala-Arg-MCA, and compound concentrations of 5 μmol/L. We have used a similar approach to identify inhibitors of the hepsin protease.

Chain of Transmembrane protease serine 2 (O15393 1-255 limits assumed): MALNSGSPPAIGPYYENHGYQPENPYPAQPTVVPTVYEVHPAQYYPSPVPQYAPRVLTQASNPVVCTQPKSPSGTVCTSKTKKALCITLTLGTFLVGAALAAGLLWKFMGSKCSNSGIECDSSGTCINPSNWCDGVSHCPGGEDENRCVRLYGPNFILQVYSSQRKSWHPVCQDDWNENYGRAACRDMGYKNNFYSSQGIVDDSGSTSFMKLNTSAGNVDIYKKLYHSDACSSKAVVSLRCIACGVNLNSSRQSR
Chain of Transmembrane protease serine 2 (O15393 256-492 limits assumed): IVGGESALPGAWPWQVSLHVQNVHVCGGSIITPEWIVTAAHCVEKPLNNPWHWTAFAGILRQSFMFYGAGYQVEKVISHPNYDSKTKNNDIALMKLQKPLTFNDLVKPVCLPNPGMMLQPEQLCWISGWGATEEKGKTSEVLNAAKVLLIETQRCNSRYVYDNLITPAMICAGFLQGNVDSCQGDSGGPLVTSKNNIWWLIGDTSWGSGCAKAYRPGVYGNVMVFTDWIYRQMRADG

CCn1c(-c2ccc(Cl)cc2)csc1=Nc1ccccc1 [8008-1235]
IC50: 2640 nM

CN(Cc1cc(Br)cc(Br)c1N)C1CCCCC1 [Bromhexine]
IC50: 750 nM

COC(=O)c1ccc(OC(=O)c2cccs2)cc1 [0591-5329]
IC50: 930 nM

CCN1CCn2c3c(c4cc(Br)ccc42)CCCC31 (stereo not given) [4401-0077]
IC50: 2680 nM

COC(=O)Cc1cc(=O)oc2cc(O)ccc12
IC50: 1370 nM
